Seven compounds from US20260201008A1, “SECRETIN-DERIVED GLP1R SELECTIVE AGONISTS” (GUBRA A/S, priority 2023, published 2026) can be followed below.

Numbered stars: 1 amine (or outer) side, 2 acyl side, 3 side chain; on linkers, the order of the positions; unused ones are H or OH. Square brackets hold non-standard residues; d marks the D form. Side chains are listed from the residue outwards. Peptide text beside a SMILES is read from it. * marks the point of attachment. C20 diacid = O=C(O)CCCCCCCCCCCCCCCCCCC(=O)*; γGlu = O=C(O)[C@H](CCC(=O)[*:2])N[*:1]; AEEA = NCCOCCOCC(=O)O; Aib = CC(C)(N)C(=O)O

A short description of data set [1]: Turbidity of crude library peptides (absorbance at 600 nm). To be noted: Physical stability of peptides. The class given is physicochemical. In short, it runs like this: (§1)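 Crude peptides at 267 μM in 50 mM sodium acetate pH 4.0 or 50 mM sodium phosphate pH 7.0, pre-incubated 1-2 h at room temperature, then 4 μM final ThT added. Turbidity read first as A600. ThT fluorescence (ex 450/em 480 nm) read every 10 min for 72 h at 40° C, with 5 min shaking before each read; fibril formation = average emission.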

In data set [2] the target is SCTR (Homo sapiens, UniProt P47872). Description: hSCTR potency, cAMP accumulation in CHO-K1 cells stably overexpressing hSCTR. Type of data set: cell-based. Also on record: alternatively Euroscreen ES-712-AF; FAST-0161L; host or cells: CHO-K1. To be noted: cAMP accumulation, CHO-K1 cells overexpressing hSCTR; read-out: hSCTR pEC50 (converted). The method, boiled down: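 Read-out is TR-FRET cAMP detection, recorded one hour after reagent addition, in CHO-K1 cells stably overexpressing hSCTR. Cells in DPBS containing 0.05% casein and 0.5 mM IBMX are exposed to graded peptide doses for 30 min at room temperature, with human secretin as reference agonist.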
Chain of SCTR (P47872 23-440): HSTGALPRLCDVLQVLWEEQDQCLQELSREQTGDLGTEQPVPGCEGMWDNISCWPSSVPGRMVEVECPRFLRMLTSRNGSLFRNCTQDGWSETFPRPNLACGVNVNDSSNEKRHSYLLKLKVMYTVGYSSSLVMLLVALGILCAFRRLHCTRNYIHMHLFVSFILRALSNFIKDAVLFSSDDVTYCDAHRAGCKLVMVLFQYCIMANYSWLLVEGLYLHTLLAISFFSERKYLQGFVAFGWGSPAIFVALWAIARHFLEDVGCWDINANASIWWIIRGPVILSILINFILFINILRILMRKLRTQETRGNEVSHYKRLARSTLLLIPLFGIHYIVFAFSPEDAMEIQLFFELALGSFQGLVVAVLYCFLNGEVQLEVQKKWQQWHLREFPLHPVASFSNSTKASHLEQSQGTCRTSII
For orientation: Cyclic AMP is a second messenger, typically raised through Gs and lowered through Gi signalling.

The target of data set [3] is GLP1R (Homo sapiens, UniProt P43220). Description: hGLP1R potency, cAMP accumulation in CHO-K1 cells stably overexpressing hGLP1R. Type of data set: cell-based. Also on record: host or cells: CHO-K1. Particulars: for EC50: cAMP accumulation, CHO-K1 cells overexpressing hGLP1R, read-out: hGLP1R pEC50 (converted); for SCTR EC50/GLP1R EC50 ratio: selectivity for hGLP1R over hSCTR, cAMP accumulation in CHO-K1 cells. The method, boiled down:
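Thawed cells go straight into buffer containing 0.5 mM IBMX and 0.05% casein, get graded compound doses for 30 min at room temperature, and are then assayed for accumulated cAMP by time-resolved FRET. Human GLP-1(7-36) serves as positive control; EC50 is derived by nonlinear regression.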

A short description of data set [4]: Fibril formation of crude library peptides (Thioflavin T). To be noted: Physical stability of peptides. Also on record: key: average ThT fluorescence emission at 480 nm (ex 450 nm), raw units. Type of data set: physicochemical. The method, boiled down: as §1

Chain of GLP1R (P43220 24-463): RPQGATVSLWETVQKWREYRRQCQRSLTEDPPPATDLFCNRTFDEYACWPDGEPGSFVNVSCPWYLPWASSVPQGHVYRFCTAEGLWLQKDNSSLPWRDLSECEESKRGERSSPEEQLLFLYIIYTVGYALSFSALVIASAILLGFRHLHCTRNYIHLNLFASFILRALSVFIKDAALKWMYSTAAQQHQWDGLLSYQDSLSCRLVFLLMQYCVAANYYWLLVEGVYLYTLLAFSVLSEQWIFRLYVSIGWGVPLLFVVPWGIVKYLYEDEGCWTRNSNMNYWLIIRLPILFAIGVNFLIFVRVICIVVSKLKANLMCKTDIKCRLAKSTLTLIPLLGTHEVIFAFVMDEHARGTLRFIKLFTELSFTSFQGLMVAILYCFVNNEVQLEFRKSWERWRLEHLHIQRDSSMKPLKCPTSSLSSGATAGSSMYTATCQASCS

Take `CC(C)C[C@H](NC(=O)[C@H](CCC(=O)O)NC(=O)[C@H](CCCCNC(=O)COCCOCCNC(=O)COCCOCCNC(=O)CC[C@H](NC(=O)CCCCCCCCCCCCCCCCCCC(=O)O)C(=O)O)NC(=O)[C@H](CC(C)C)NC(=O)[C@H](Cc1ccc(O)cc1)NC(=O)[C@H](CO)NC(=O)[C@@H](NC(=O)[C@H](CC(=O)O)NC(=O)[C@H](CO)NC(=O)[C@@H](NC(=O)[C@H](Cc1ccccc1)NC(=O)[C@@H](NC(=O)CNC(=O)[C@H](CCC(=O)O)NC(=O)C(C)(C)NC(=O)[C@@H](N)Cc1c[nH]cn1)[C@@H](C)O)[C@@H](C)O)C(C)C)C(=O)N[C@@H](C)C(=O)N[C@@H](C)C(=O)N[C@@H](C)C(=O)N[C@@H](CCC(N)=O)C(=O)N[C@@H](CCCNC(=N)N)C(=O)N[C@@H](Cc1ccccc1)C(=O)N[C@@H](CC(C)C)C(=O)N[C@@H](CCC(=O)O)C(=O)N[C@@H](Cc1c[nH]cn1)C(=O)N[C@@H](CC(C)C)C(=O)N[C@H](C(N)=O)C(C)C` [compound 86] (H-H[Aib]EGTFTSDVSYLK([AEEA-AEEA-γGlu-C20 diacid])ELAAAQRFLEHLV-NH2): in data set [1], the “Turbidity (pH 7)” value is on record as 0.08. In addition, in data set [2], the EC50 was 3980 nM. Moreover, in data set [3], the EC50 is 0.2 nM and the “SCTR EC50/GLP1R EC50 ratio” value stood at 19815. Moreover, the Fibril formation in data set [4] turned out to be 9344.

For `CC(C)C[C@H](NC(=O)[C@H](Cc1ccccc1)NC(=O)[C@H](CCCNC(=N)N)NC(=O)[C@H](CCC(N)=O)NC(=O)[C@H](CO)NC(=O)[C@H](C)NC(=O)[C@H](C)NC(=O)[C@H](CCC(=O)O)NC(=O)[C@H](CCC(=O)O)NC(=O)[C@H](CCCCNC(=O)COCCOCCNC(=O)COCCOCCNC(=O)CC[C@H](NC(=O)CCCCCCCCCCCCCCCCCCC(=O)O)C(=O)O)NC(=O)[C@H](CC(C)C)NC(=O)[C@H](CCC(=O)O)NC(=O)[C@H](CO)NC(=O)[C@@H](NC(=O)[C@H](CC(=O)O)NC(=O)[C@H](CO)NC(=O)[C@@H](NC(=O)[C@H](Cc1ccccc1)NC(=O)[C@@H](NC(=O)CNC(=O)[C@H](CCC(=O)O)NC(=O)C(C)(C)NC(=O)[C@@H](N)Cc1c[nH]cn1)[C@@H](C)O)[C@@H](C)O)C(C)C)C(=O)N[C@@H](CCC(=O)O)C(=O)N[C@@H](Cc1c[nH]cn1)C(=O)N[C@@H](CC(C)C)C(=O)N[C@H](C(N)=O)C(C)C` [compound 87] (H-H[Aib]EGTFTSDVSELK([AEEA-AEEA-γGlu-C20 diacid])EEAASQRFLEHLV-NH2), in data set [1], the “Turbidity (pH 7)” value is given as 0.08. Also, the results for the EC50 in data set [2] and in data set [3] were 1580 nM and 0.0398 nM, respectively. Also, in data set [3], the “SCTR EC50/GLP1R EC50 ratio” value was found to be 39811. The compound also yielded a Fibril formation in data set [4] of 7811.

On to `CC(C)C[C@H](NC(=O)[C@H](Cc1ccccc1)NC(=O)[C@H](CCCNC(=N)N)NC(=O)[C@H](CCC(N)=O)NC(=O)[C@H](CCC(N)=O)NC(=O)[C@H](C)NC(=O)[C@H](C)NC(=O)C(C)(C)NC(=O)[C@H](CCC(=O)O)NC(=O)[C@H](CCCCNC(=O)COCCOCCNC(=O)COCCOCCNC(=O)CC[C@H](NC(=O)CCCCCCCCCCCCCCCCCCC(=O)O)C(=O)O)NC(=O)[C@H](CC(C)C)NC(=O)[C@@H](NC(=O)[C@H](CO)NC(=O)[C@@H](NC(=O)[C@H](CC(=O)O)NC(=O)[C@H](CO)NC(=O)[C@@H](NC(=O)[C@H](Cc1ccccc1)NC(=O)[C@@H](NC(=O)CNC(=O)[C@H](CCC(=O)O)NC(=O)C(C)(C)NC(=O)[C@@H](N)Cc1c[nH]cn1)[C@@H](C)O)[C@@H](C)O)C(C)C)[C@@H](C)O)C(=O)N[C@@H](CCC(=O)O)C(=O)N[C@@H](Cc1c[nH]cn1)C(=O)N[C@@H](CC(C)C)C(=O)N[C@H](C(N)=O)C(C)C` [compound 88] (H-H[Aib]EGTFTSDVSTLK([AEEA-AEEA-γGlu-C20 diacid])E[Aib]AAQQRFLEHLV-NH2), for which the “Turbidity (pH 7)” value in data set [1] came to 0.08. Further, the EC50 in data set [2] is 158 nM. Besides, in data set [3], the EC50 is 0.00398 nM and the “SCTR EC50/GLP1R EC50 ratio” value was 42658. The compound also registered a Fibril formation in data set [4] of 10893.

For `CC(C)C[C@H](NC(=O)[C@H](Cc1ccccc1)NC(=O)[C@H](CCCNC(=N)N)NC(=O)[C@H](CCC(N)=O)NC(=O)[C@H](CCC(=O)O)NC(=O)[C@H](C)NC(=O)[C@H](C)NC(=O)[C@H](Cc1ccccc1)NC(=O)[C@H](CCC(=O)O)NC(=O)[C@H](CCCCNC(=O)COCCOCCNC(=O)COCCOCCNC(=O)CC[C@H](NC(=O)CCCCCCCCCCCCCCCCCCC(=O)O)C(=O)O)NC(=O)[C@H](CC(C)C)NC(=O)[C@@H](NC(=O)[C@H](CO)NC(=O)[C@@H](NC(=O)[C@H](CC(=O)O)NC(=O)[C@H](CO)NC(=O)[C@@H](NC(=O)[C@H](Cc1ccccc1)NC(=O)[C@@H](NC(=O)CNC(=O)[C@H](CCC(=O)O)NC(=O)C(C)(C)NC(=O)[C@@H](N)Cc1c[nH]cn1)[C@@H](C)O)[C@@H](C)O)C(C)C)[C@@H](C)O)C(=O)N[C@@H](CCC(=O)O)C(=O)N[C@@H](Cc1c[nH]cn1)C(=O)N[C@@H](CC(C)C)C(=O)N[C@H](C(N)=O)C(C)C` [compound 89] (H-H[Aib]EGTFTSDVSTLK([AEEA-AEEA-γGlu-C20 diacid])EFAAEQRFLEHLV-NH2), the “Turbidity (pH 7)” value in data set [1] amounted to 0.08. Moreover, the EC50 in data set [2] was 2000 nM. In data set [3], the EC50 is 0.02 nM and the “SCTR EC50/GLP1R EC50 ratio” value turned out to be 81527. The compound further yielded a Fibril formation in data set [4] of 14469.

For the compound `CC(C)C[C@H](NC(=O)[C@H](Cc1ccccc1)NC(=O)[C@H](CCCNC(=N)N)NC(=O)[C@H](CCC(N)=O)NC(=O)[C@H](CCC(N)=O)NC(=O)[C@H](C)NC(=O)[C@H](C)NC(=O)[C@H](CCC(=O)O)NC(=O)[C@H](CCC(=O)O)NC(=O)[C@H](CCCCNC(=O)COCCOCCNC(=O)COCCOCCNC(=O)CC[C@H](NC(=O)CCCCCCCCCCCCCCCCCCC(=O)O)C(=O)O)NC(=O)[C@H](CC(C)C)NC(=O)[C@@H](NC(=O)[C@H](CO)NC(=O)[C@@H](NC(=O)[C@H](CC(=O)O)NC(=O)[C@H](CO)NC(=O)[C@@H](NC(=O)[C@H](Cc1ccccc1)NC(=O)[C@@H](NC(=O)CNC(=O)[C@H](CCC(=O)O)NC(=O)C(C)(C)NC(=O)[C@@H](N)Cc1c[nH]cn1)[C@@H](C)O)[C@@H](C)O)C(C)C)C(C)C)C(=O)N[C@@H](CCC(=O)O)C(=O)N[C@@H](Cc1c[nH]cn1)C(=O)N[C@@H](CC(C)C)C(=O)N[C@H](C(N)=O)C(C)C` [compound 90] (H-H[Aib]EGTFTSDVSVLK([AEEA-AEEA-γGlu-C20 diacid])EEAAQQRFLEHLV-NH2), the “Turbidity (pH 7)” value in data set [1] worked out at 0.09. Besides, the EC50 in data set [2] was 1580 nM; in data set [3] it was 0.0316 nM. The “SCTR EC50/GLP1R EC50 ratio” value in data set [3] is recorded as 51322. In data set [4], this compound showed a Fibril formation of 5668.

Turning to `CC(C)C[C@H](NC(=O)[C@H](Cc1ccccc1)NC(=O)[C@H](CCCNC(=N)N)NC(=O)[C@H](CCC(N)=O)NC(=O)[C@H](CO)NC(=O)[C@H](C)NC(=O)[C@H](C)NC(=O)[C@H](Cc1ccccc1)NC(=O)[C@H](CCC(=O)O)NC(=O)[C@H](CCCCNC(=O)COCCOCCNC(=O)COCCOCCNC(=O)CC[C@H](NC(=O)CCCCCCCCCCCCCCCCCCC(=O)O)C(=O)O)NC(=O)[C@H](CC(C)C)NC(=O)[C@H](Cc1ccccc1)NC(=O)[C@H](CO)NC(=O)[C@@H](NC(=O)[C@H](CC(=O)O)NC(=O)[C@H](CO)NC(=O)[C@@H](NC(=O)[C@H](Cc1ccccc1)NC(=O)[C@@H](NC(=O)CNC(=O)[C@H](CCC(=O)O)NC(=O)C(C)(C)NC(=O)[C@@H](N)Cc1c[nH]cn1)[C@@H](C)O)[C@@H](C)O)C(C)C)C(=O)N[C@@H](CCC(=O)O)C(=O)N[C@@H](Cc1c[nH]cn1)C(=O)N[C@@H](CC(C)C)C(=O)N[C@H](C(N)=O)C(C)C` [compound 91] (H-H[Aib]EGTFTSDVSFLK([AEEA-AEEA-γGlu-C20 diacid])EFAASQRFLEHLV-NH2), in data set [1], the “Turbidity (pH 7)” value was 0.42. The EC50 in data set [2] was 31600 nM. In data set [3], the EC50 was 0.316 nM and the “SCTR EC50/GLP1R EC50 ratio” value is listed as 101438. The Fibril formation in data set [4] is 260000.

Turning to `CC(C)C[C@H](NC(=O)[C@H](Cc1ccccc1)NC(=O)[C@H](CCCNC(=N)N)NC(=O)[C@H](CCC(N)=O)NC(=O)[C@H](CO)NC(=O)[C@H](C)NC(=O)[C@H](C)NC(=O)[C@H](Cc1ccccc1)NC(=O)[C@H](CCC(=O)O)NC(=O)[C@H](CCCCNC(=O)COCCOCCNC(=O)COCCOCCNC(=O)CC[C@H](NC(=O)CCCCCCCCCCCCCCCCCCC(=O)O)C(=O)O)NC(=O)[C@H](CC(C)C)NC(=O)[C@@H](NC(=O)[C@H](CO)NC(=O)[C@@H](NC(=O)[C@H](CC(=O)O)NC(=O)[C@H](CO)NC(=O)[C@@H](NC(=O)[C@H](Cc1ccccc1)NC(=O)[C@@H](NC(=O)CNC(=O)[C@H](CCC(=O)O)NC(=O)C(C)(C)NC(=O)[C@@H](N)Cc1c[nH]cn1)[C@@H](C)O)[C@@H](C)O)C(C)C)C(C)C)C(=O)N[C@@H](CCC(=O)O)C(=O)N[C@@H](Cc1c[nH]cn1)C(=O)N[C@@H](CC(C)C)C(=O)N[C@H](C(N)=O)C(C)C` [compound 92] (H-H[Aib]EGTFTSDVSVLK([AEEA-AEEA-γGlu-C20 diacid])EFAASQRFLEHLV-NH2), in data set [1], the “Turbidity (pH 7)” value is 0.14. Moreover, the EC50 in data set [2] was 1580 nM. For the same compound, in data set [3], the EC50 is 0.0794 nM and the “SCTR EC50/GLP1R EC50 ratio” value came out at 20773. In addition, the Fibril formation in data set [4] came out at 260000.
